Data reported in patent US20260159497A1, “SOLID FORMS OF A COMPLEMENT FACTOR B INHIBITOR” (Novartis Pharma AG, priority 2022, published 2026).

Legend:
[1] = Stability of Forms A and B under stress conditions (temperature/humidity, capsules, light)
[2] = Water content by Karl Fischer titration; assay type: physicochemical; conditions: ambient conditions; relative to total weight of the salt / free form
[3] = Dynamic vapor sorption (DVS) mass change; assay type: physicochemical; conditions: for Mass change by DVS, Desorption (%) / Mass change by DVS, Sorption (%): Table 5, 25 degree C., based on dry weight; for Mass change by DVS, 1st Desorption (%) / Mass change by DVS, 1st Sorption (%) / Mass change by DVS, 2nd Desorption (%) / Mass change by DVS, 2nd Sorption (%): Table 6
Text: [table] The mass change by DVS isotherm (2 cycles 40-0-95-0-40% RH) are in the tables below. The mass change is based on the dry weight of each.

COc1cc(C)c2[nH]ccc2c1CN1CCC2(C[C@H]1c1ccc(C(=O)O)cc1)CC(F)(F)C2.Cc1ccc(S(=O)(=O)O)cc1 [Form B, (S)-4-(2,2-difluoro-7-((5-methoxy-7-methyl-1H-indol-4-yl)methyl)-7-azaspiro[3.5]nonan-6-yl)benzoic acid p-toluene sulfonate]
stability in HPMC and HGC capsules ([1]; 50° C. with 11% and 75% RH for 2 weeks): chemically and physically stable | degradation under light stress ([1]; 1200 kLux light stress): about 0.2% | discoloration under light stress ([1]; 1200 kLux light stress): slight discoloration | form change by XRPD after humidity exposure ([1]; exposed to 80% or 92% RH for 24 hrs): no change | chemical stability in bulk state ([1]; stored at 50° C. with 11% RH or 75% RH for 1 week): chemically stable | degradation in bulk state ([1]; stored at 80° C. with 75% RH): about 0.1% | discoloration in bulk state ([1]; stored at 80° C. with 75% RH): slight discoloration | chemical stability in bulk state ([1]; stored at 80° C./11% RH for 1 week): chemically stable | polymorphic form in the stress conditions ([1]; temperature/humidity and light stress conditions): no change | water content by Karl Fischer titration [2]: 2.3 % w/w | water sorption and desorption behavior [3]: reversible water sorption and desorption behavior with no hysteresis | maximum water uptake in DVS ([3]; 95% RH at 25° C.): 2.67% | moisture absorbed by DVS (absorbs up to) ([3]; 95% RH at 25° C.): up to 2.7% | Mass change by DVS, Desorption (%) ([3]; 0% RH): 0.00% | Mass change by DVS, Sorption (%) ([3]; 0% RH): 0.00% | Mass change by DVS, Desorption (%) ([3]; 10% RH): 1.11% | Mass change by DVS, Sorption (%) ([3]; 10% RH): 1.08% | Mass change by DVS, Desorption (%) ([3]; 20% RH): 1.66% | Mass change by DVS, Sorption (%) ([3]; 20% RH): 1.64% | Mass change by DVS, Desorption (%) ([3]; 30% RH): 1.93% | Mass change by DVS, Sorption (%) ([3]; 30% RH): 1.92% | Mass change by DVS, Desorption (%) ([3]; 40% RH): 2.10% | Mass change by DVS, Sorption (%) ([3]; 40% RH): 2.09% | Mass change by DVS, Desorption (%) ([3]; 50% RH): 2.22% | Mass change by DVS, Sorption (%) ([3]; 50% RH): 2.21% | Mass change by DVS, Desorption (%) ([3]; 60% RH): 2.32% | Mass change by DVS, Sorption (%) ([3]; 60% RH): 2.31% | Mass change by DVS, Desorption (%) ([3]; 70% RH): 2.39% | Mass change by DVS, Sorption (%) ([3]; 70% RH): 2.38% | Mass change by DVS, Desorption (%) ([3]; 80% RH): 2.46% | Mass change by DVS, Sorption (%) ([3]; 80% RH): 2.45% | Mass change by DVS, Desorption (%) ([3]; 90% RH): 2.54% | Mass change by DVS, Sorption (%) ([3]; 90% RH): 2.54% | Mass change by DVS, Desorption (%) ([3]; 95% RH): 2.62% | Mass change by DVS, Sorption (%) ([3]; 95% RH): 2.62% | Mass change by DVS, 1st Desorption (%) ([3]; DVS at 25 degree C., 0% RH): 0.00% | Mass change by DVS, 1st Sorption (%) ([3]; DVS at 25 degree C., 0% RH): 0.00% | Mass change by DVS, 2nd Desorption (%) ([3]; DVS at 25 degree C., 0% RH): −0.01% | Mass change by DVS, 2nd Sorption (%) ([3]; DVS at 25 degree C., 0% RH): −0.01% | Mass change by DVS, 1st Desorption (%) ([3]; DVS at 25 degree C., 10% RH): 1.13% | Mass change by DVS, 1st Sorption (%) ([3]; DVS at 25 degree C., 10% RH): 1.11% | Mass change by DVS, 2nd Desorption (%) ([3]; DVS at 25 degree C., 10% RH): 1.13% | Mass change by DVS, 2nd Sorption (%) ([3]; DVS at 25 degree C., 10% RH): 1.11% | Mass change by DVS, 1st Desorption (%) ([3]; DVS at 25 degree C., 20% RH): 1.70% | Mass change by DVS, 1st Sorption (%) ([3]; DVS at 25 degree C., 20% RH): 1.69% | Mass change by DVS, 2nd Desorption (%) ([3]; DVS at 25 degree C., 20% RH): 1.70% | Mass change by DVS, 2nd Sorption (%) ([3]; DVS at 25 degree C., 20% RH): 1.68% | Mass change by DVS, 1st Desorption (%) ([3]; DVS at 25 degree C., 30% RH): 1.98% | Mass change by DVS, 1st Sorption (%) ([3]; DVS at 25 degree C., 30% RH): 1.97% | Mass change by DVS, 2nd Desorption (%) ([3]; DVS at 25 degree C., 30% RH): 1.98% | Mass change by DVS, 2nd Sorption (%) ([3]; DVS at 25 degree C., 30% RH): 1.97% | Mass change by DVS, 1st Desorption (%) ([3]; DVS at 25 degree C., 40% RH): 2.16% | Mass change by DVS, 1st Sorption (%) ([3]; DVS at 25 degree C., 40% RH): 2.15% | Mass change by DVS, 2nd Desorption (%) ([3]; DVS at 25 degree C., 40% RH): 2.16% | Mass change by DVS, 2nd Sorption (%) ([3]; DVS at 25 degree C., 40% RH): 2.15% | Mass change by DVS, 1st Sorption (%) ([3]; DVS at 25 degree C., 50% RH): 2.28% | Mass change by DVS, 2nd Desorption (%) ([3]; DVS at 25 degree C., 50% RH): 2.29% | Mass change by DVS, 1st Sorption (%) ([3]; DVS at 25 degree C., 60% RH): 2.37% | Mass change by DVS, 2nd Desorption (%) ([3]; DVS at 25 degree C., 60% RH): 2.38% | Mass change by DVS, 1st Sorption (%) ([3]; DVS at 25 degree C., 70% RH): 2.45% | Mass change by DVS, 2nd Desorption (%) ([3]; DVS at 25 degree C., 70% RH): 2.47% | Mass change by DVS, 1st Sorption (%) ([3]; DVS at 25 degree C., 80% RH): 2.53% | Mass change by DVS, 2nd Desorption (%) ([3]; DVS at 25 degree C., 80% RH): 2.54% | Mass change by DVS, 1st Sorption (%) ([3]; DVS at 25 degree C., 90% RH): 2.60% | Mass change by DVS, 2nd Desorption (%) ([3]; DVS at 25 degree C., 90% RH): 2.61% | Mass change by DVS, 1st Sorption (%) ([3]; DVS at 25 degree C., 95% RH): 2.67% | Mass change by DVS, 2nd Desorption (%) ([3]; DVS at 25 degree C., 95% RH): 2.67% | Mass change by DVS, 1st Desorption (%) ([3]; DVS at 40 degree C., 0% RH): 0.00% | Mass change by DVS, 1st Sorption (%) ([3]; DVS at 40 degree C., 0% RH): 0.00%
